Source: ChEMBL document CHEMBL1909046, “DrugMatrix in vitro pharmacology data”
Where a SMILES comes first, the peptide text is derived from it. Bridges are numbered along the chain shown (N, C = ends). [ ]: non-standard residue; d: D form. The star is where a group is joined. Ileψ(thiazoline)Cys = CC[C@H](C)[C@H](N)C1=N[C@H](C(=O)*)CS1; dOrn = NCCC[C@@H](N)C(=O)O

How the values were obtained:
[1] = DRUGMATRIX: Phosphodiesterase PDE3 enzyme inhibition (substrate: [3H]cAMP + cAMP); format: tissue-based, Homo sapiens; settings: platelet; Not Active = under 50% inhibition at 10 µM
[2] = DRUGMATRIX: ATPase, Na+/K+ enzyme inhibition (substrate: ATP); format: tissue-based, Sus scrofa, Heart; settings: Not Active = under 50% inhibition at 10 µM
D(4) dopamine receptor = biological target: T1, D(4) dopamine receptor (Homo sapiens, UniProt P21917); test: DRUGMATRIX: Dopamine D4.2 radioligand binding (ligand: [3H] Spiperone); format: cell membranes, CHO-K1, Membrane; settings: cho-k1; Not Active = under 50% inhibition at 10 µM
T1 sequence (P21917 whole entry): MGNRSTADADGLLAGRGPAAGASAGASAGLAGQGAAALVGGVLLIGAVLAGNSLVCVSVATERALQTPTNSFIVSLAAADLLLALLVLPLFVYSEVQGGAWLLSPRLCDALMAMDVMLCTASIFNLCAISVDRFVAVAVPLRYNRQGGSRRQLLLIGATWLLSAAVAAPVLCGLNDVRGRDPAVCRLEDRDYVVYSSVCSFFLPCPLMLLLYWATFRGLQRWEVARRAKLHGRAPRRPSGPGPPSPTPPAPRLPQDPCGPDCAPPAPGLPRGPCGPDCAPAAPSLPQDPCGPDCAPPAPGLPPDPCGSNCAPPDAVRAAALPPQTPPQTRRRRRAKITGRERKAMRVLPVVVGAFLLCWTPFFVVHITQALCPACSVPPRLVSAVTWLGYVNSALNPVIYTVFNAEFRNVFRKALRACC

Substance-K receptor = biological target: T2, Substance-K receptor (Homo sapiens, UniProt P21452); format: cell membranes, CHO, Membrane; settings: cho; note: in other assays of this panel Not Active means under 50% inhibition at 10 µM
T2 sequence (P21452 whole entry): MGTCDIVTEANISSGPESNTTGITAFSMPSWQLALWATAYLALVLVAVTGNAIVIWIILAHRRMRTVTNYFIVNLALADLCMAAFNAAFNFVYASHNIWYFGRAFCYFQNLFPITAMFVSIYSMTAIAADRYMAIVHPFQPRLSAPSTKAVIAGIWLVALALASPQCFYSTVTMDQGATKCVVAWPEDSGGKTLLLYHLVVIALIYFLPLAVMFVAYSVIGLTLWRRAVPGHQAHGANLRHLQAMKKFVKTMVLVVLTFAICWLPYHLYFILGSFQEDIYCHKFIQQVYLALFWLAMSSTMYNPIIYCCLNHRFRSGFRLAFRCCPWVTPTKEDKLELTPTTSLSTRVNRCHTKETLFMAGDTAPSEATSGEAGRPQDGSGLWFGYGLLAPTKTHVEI

[3] = biological target: T3, Type-2 angiotensin II receptor (Homo sapiens, UniProt P50052); format: cell-based; settings: cho-k1; note: in other assays of this panel Not Active means under 50% inhibition at 10 µM
T3 sequence (P50052 whole entry): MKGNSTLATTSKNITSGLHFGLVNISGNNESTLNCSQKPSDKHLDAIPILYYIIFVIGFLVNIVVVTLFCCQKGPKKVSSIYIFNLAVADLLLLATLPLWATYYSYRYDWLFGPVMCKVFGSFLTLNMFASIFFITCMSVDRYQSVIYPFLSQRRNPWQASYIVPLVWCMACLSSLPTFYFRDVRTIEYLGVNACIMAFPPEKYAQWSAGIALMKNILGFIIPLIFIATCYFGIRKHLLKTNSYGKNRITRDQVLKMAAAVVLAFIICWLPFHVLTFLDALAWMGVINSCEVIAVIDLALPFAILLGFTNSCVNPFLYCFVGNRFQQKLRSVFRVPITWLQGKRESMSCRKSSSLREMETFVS

Cytochrome P450 2C19 = Cytochrome P450 2C19 (Homo sapiens, UniProt P33261); settings: bti-tn-5b1-4; note: in other assays of this panel Not Active means under 50% inhibition at 10 µM
Mu-type opioid receptor = Mu-type opioid receptor (Homo sapiens, UniProt P35372); test: DRUGMATRIX: Opiate mu (OP3, MOP) radioligand binding (ligand: [3H] Diprenorphine); format: cell membranes, CHO-K1, Membrane; settings: cho-k1; Not Active = under 50% inhibition at 10 µM
[4] = biological target: T4, 3-hydroxy-3-methylglutaryl-coenzyme A reductase (Homo sapiens, UniProt P04035); design: species or system Escherichia coli;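 note: enzyme inhibition assay of HMG-CoA reductase using radiolabeled [14C]HMG-CoA as substrate; in other assays of this panel Not Active means under 50% inhibition at 10 µM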
T4 sequence (P04035 whole entry): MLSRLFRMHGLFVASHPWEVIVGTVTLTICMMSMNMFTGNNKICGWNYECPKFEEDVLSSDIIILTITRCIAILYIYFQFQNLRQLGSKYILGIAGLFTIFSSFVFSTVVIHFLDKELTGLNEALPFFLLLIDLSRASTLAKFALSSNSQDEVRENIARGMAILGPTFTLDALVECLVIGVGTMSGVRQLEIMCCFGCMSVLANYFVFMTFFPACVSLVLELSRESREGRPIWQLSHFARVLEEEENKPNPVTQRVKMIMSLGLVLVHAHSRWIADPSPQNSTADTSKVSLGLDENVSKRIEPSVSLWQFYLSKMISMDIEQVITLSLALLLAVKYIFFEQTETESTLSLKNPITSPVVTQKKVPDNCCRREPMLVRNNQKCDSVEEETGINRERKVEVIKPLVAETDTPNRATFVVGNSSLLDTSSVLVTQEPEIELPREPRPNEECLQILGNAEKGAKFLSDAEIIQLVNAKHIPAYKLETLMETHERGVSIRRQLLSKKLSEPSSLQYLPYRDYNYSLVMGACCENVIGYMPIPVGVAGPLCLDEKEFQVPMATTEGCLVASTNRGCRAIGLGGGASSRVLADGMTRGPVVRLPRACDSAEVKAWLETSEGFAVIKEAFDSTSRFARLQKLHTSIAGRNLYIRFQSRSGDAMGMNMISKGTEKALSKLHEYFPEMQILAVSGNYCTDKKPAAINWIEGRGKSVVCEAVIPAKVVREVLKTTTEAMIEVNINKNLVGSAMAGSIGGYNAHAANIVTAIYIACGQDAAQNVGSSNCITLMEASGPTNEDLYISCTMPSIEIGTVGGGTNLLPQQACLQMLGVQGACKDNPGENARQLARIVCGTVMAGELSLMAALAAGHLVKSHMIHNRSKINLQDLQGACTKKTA

Sequence of Mu-type opioid receptor (P35372 whole entry): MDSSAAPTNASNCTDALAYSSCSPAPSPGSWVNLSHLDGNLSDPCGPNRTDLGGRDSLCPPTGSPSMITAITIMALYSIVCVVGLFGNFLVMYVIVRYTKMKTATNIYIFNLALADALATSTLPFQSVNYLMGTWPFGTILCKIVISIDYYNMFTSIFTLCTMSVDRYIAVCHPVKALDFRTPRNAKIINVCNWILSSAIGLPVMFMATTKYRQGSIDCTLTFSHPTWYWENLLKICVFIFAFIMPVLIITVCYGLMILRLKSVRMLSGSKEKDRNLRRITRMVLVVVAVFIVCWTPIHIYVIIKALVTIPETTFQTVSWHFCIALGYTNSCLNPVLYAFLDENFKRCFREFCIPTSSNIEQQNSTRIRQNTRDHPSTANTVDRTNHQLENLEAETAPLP
Sequence of Cytochrome P450 2C19 (P33261 whole entry): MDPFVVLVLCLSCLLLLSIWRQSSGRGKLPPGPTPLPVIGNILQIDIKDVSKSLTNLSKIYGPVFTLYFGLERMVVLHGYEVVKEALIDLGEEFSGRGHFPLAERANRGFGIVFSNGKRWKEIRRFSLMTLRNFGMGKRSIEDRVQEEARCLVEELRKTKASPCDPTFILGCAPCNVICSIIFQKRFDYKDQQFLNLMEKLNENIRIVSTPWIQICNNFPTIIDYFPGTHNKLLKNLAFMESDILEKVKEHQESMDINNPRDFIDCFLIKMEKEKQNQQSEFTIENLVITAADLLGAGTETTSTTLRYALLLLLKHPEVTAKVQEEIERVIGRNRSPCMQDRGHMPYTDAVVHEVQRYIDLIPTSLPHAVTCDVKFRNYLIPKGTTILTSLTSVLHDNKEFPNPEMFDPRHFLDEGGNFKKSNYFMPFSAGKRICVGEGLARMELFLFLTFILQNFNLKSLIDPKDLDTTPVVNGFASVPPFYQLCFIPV

NS(=O)(=O)c1cc2c(cc1Cl)NCNS2(=O)=O [HYDROCHLOROTHIAZIDE]
Not Active: IC50 [1] | Ki [1] | IC50 [2] | Ki [2] | IC50 (D(4) dopamine receptor) | IC50 (Substance-K receptor) | IC50 [3] | IC50 (Cytochrome P450 2C19) | Ki (Cytochrome P450 2C19) | IC50 (Mu-type opioid receptor) | IC50 [4]

Fc1ccc([C@@H]2CCNC[C@H]2COc2ccc3c(c2)OCO3)cc1 [PAROXETINE]
Not Active: IC50 [1] | Ki [1] | IC50 [2] | Ki [2] | IC50 (D(4) dopamine receptor) | IC50 (Substance-K receptor) | IC50 [3] | IC50 (Cytochrome P450 2C19) | Ki (Cytochrome P450 2C19) | IC50 (Mu-type opioid receptor) | IC50 [4]

COc1c(N2CCNC(C)C2)c(F)cc2c(=O)c(C(=O)O)cn(C3CC3)c12 (stereo not drawn) [GATIFLOXACIN]
Not Active: IC50 [1] | Ki [1] | IC50 [2] | Ki [2] | IC50 (D(4) dopamine receptor) | IC50 (Substance-K receptor) | IC50 [3] | IC50 (Cytochrome P450 2C19) | Ki (Cytochrome P450 2C19) | IC50 (Mu-type opioid receptor) | IC50 [4]

CC[N+](CC)(CC)CCOc1cccc(OCC[N+](CC)(CC)CC)c1OCC[N+](CC)(CC)CC.[I-].[I-].[I-] [GALLAMINE TRIETHIODIDE]
Not Active: IC50 [1] | Ki [1] | IC50 [2] | Ki [2] | IC50 (D(4) dopamine receptor) | IC50 (Substance-K receptor) | IC50 [3] | IC50 (Cytochrome P450 2C19) | Ki (Cytochrome P450 2C19) | IC50 (Mu-type opioid receptor) | IC50 [4]

O=c1[nH]cc(F)c(=O)[nH]1 [FLUOROURACIL]
Not Active: IC50 [1] | Ki [1] | IC50 [2] | Ki [2] | IC50 (D(4) dopamine receptor) | IC50 (Substance-K receptor) | IC50 [3] | IC50 (Cytochrome P450 2C19) | Ki (Cytochrome P450 2C19) | IC50 (Mu-type opioid receptor) | IC50 [4]

OCc1ccccc1 [BENZYL ALCOHOL]
Not Active: IC50 [1] | Ki [1] | IC50 [2] | Ki [2] | IC50 (D(4) dopamine receptor) | IC50 (Substance-K receptor) | IC50 [3] | IC50 (Cytochrome P450 2C19) | Ki (Cytochrome P450 2C19) | IC50 (Mu-type opioid receptor) | IC50 [4]

CC1(C)[C@@H](O[C@H]2O[C@H](C(=O)O)[C@@H](O)[C@H](O)[C@H]2O[C@@H]2O[C@H](C(=O)O)[C@@H](O)[C@H](O)[C@H]2O)CC[C@]2(C)[C@H]3C(=O)C=C4[C@@H]5C[C@@](C)(C(=O)O)CC[C@]5(C)CC[C@@]4(C)[C@]3(C)CC[C@@H]12 [GLYCYRRHIZIN]
Not Active: IC50 [1] | Ki [1] | IC50 [2] | Ki [2] | IC50 (D(4) dopamine receptor) | IC50 (Substance-K receptor) | IC50 [3] | IC50 (Cytochrome P450 2C19) | Ki (Cytochrome P450 2C19) | IC50 (Mu-type opioid receptor) | IC50 [4]

CNC(=O)Oc1ccc2c(c1)[C@]1(C)CCN(C)[C@@H]1N2C [PHYSOSTIGMINE]
Not Active: IC50 [1] | Ki [1] | IC50 [2] | Ki [2] | IC50 (D(4) dopamine receptor) | IC50 (Substance-K receptor) | IC50 [3] | IC50 (Cytochrome P450 2C19) | Ki (Cytochrome P450 2C19) | IC50 (Mu-type opioid receptor) | IC50 [4]

CC1COc2c(N3CCN(C)CC3)c(F)cc3c(=O)c(C(=O)O)cn1c23 (stereo not drawn) [OFLOXACIN]
Not Active: IC50 [1] | Ki [1] | IC50 [2] | Ki [2] | IC50 (D(4) dopamine receptor) | IC50 (Substance-K receptor) | IC50 [3] | IC50 (Cytochrome P450 2C19) | Ki (Cytochrome P450 2C19) | IC50 (Mu-type opioid receptor) | IC50 [4]

COc1ccc([C@@H]2Sc3ccccc3N(CCN(C)C)C(=O)[C@@H]2OC(C)=O)cc1 [DILTIAZEM]
Not Active: IC50 [1] | Ki [1] | IC50 [2] | Ki [2] | IC50 (D(4) dopamine receptor) | IC50 (Substance-K receptor) | IC50 [3] | IC50 (Cytochrome P450 2C19) | Ki (Cytochrome P450 2C19) | IC50 (Mu-type opioid receptor) | IC50 [4]

CC(C)(S)[C@@H](N)C(=O)O [PENICILLAMINE]
Not Active: IC50 [1] | Ki [1] | IC50 [2] | Ki [2] | IC50 (D(4) dopamine receptor) | IC50 (Substance-K receptor) | IC50 [3] | IC50 (Cytochrome P450 2C19) | Ki (Cytochrome P450 2C19) | IC50 (Mu-type opioid receptor) | IC50 [4]

Cc1ccccc1N1CCN(CCc2nnc3n2CCCC3)CC1 [DAPIPRAZOLE]
Not Active: IC50 [1] | Ki [1] | IC50 [2] | Ki [2] | IC50 (D(4) dopamine receptor) | IC50 (Substance-K receptor) | IC50 [3] | IC50 (Cytochrome P450 2C19) | Ki (Cytochrome P450 2C19) | IC50 (Mu-type opioid receptor) | IC50 [4]

CC[C@H](C)[C@H](N)C1=N[C@H](C(=O)N[C@@H](CC(C)C)C(=O)N[C@H](CCC(=O)O)C(=O)N[C@H](C(=O)N[C@H]2CCCCNC(=O)[C@H](CC(N)=O)NC(=O)[C@@H](CC(=O)O)NC(=O)[C@H](Cc3cnc[nH]3)NC(=O)[C@@H](Cc3ccccc3)NC(=O)[C@H]([C@@H](C)CC)NC(=O)[C@@H](CCCN)NC2=O)[C@@H](C)CC)CS1 [BACITRACIN] ({Ileψ(thiazoline)Cys}-L[dE]IK[dOrn]I[dF]H[dD]N; lactam 4-C)
Not Active: IC50 [1] | Ki [1] | IC50 [2] | Ki [2] | IC50 (D(4) dopamine receptor) | IC50 (Substance-K receptor) | IC50 [3] | IC50 (Cytochrome P450 2C19) | Ki (Cytochrome P450 2C19) | IC50 (Mu-type opioid receptor) | IC50 [4]
